{"source": "patent US20130012389A1", "about": "“Substituted Pyridazines Having Herbicidal Action” (BASF SE, priority 2010, published 2013)", "key": {"CHEAL": {"tested_on": "CHEAL", "experiment": "greenhouse experiment, post-emergence treatment, herbicidal activity against CHEAL", "format": "in vivo, Chenopodium album", "conditions": "application rate 0.5 kg/ha, post-emergence method; scale from 0 to 100", "from_the_text": "(§1) The seeds of the test plants were sown separately for each species. For the post-emergence treatment, the test plants were first grown to a height of 3 to 15 cm, depending on the plant habit, and only then treated with the active ingredients which had been suspended or emulsified in water. For this purpose, the test plants were either sown directly and grown in the same containers, or they were first grown separately as seedlings and transplanted into the test containers a few days prior to treatment. Depending on the species, the plants were kept at 10-25° C. or 20-35° C. The test period extended over 2 to 4 weeks. During this time, the plants were tended, and their response to the individual treatments was evaluated. Evaluation was carried out using a scale from 0 to 100. 100 means no emergence of the plants, or complete destruction of at least the aerial moieties, and 0 means no damage, or normal course of growth. A good herbicidal activity is given at values of at least 70 and a very good herbicidal activity is given at values of at least 85. The plants used in the greenhouse experiments belonged to the following species: [table]"}, "AMARE": {"tested_on": "AMARE", "experiment": "greenhouse experiment, post-emergence treatment, herbicidal activity against AMARE", "format": "in vivo, Amaranthus retroflexus", "conditions": "application rate 0.5 kg/ha, post-emergence method; scale from 0 to 100", "from_the_text": "as §1"}}, "data": [{"molecule": "O=c1oc2nccnc2c(O)c1-c1cc(Cl)cc(N2CCOCC2)c1C(F)(F)F", "note": "[1-4, 7-[5-chloro-3-morpholino-2-(trifluoromethyl)phenyl]-8-hydroxy-pyrano[2,3-b]pyrazin-6-one]", "values": [{"measurement": "herbicidal activity against CHEAL", "setting": "CHEAL", "value": "very good herbicidal activity (a very good herbicidal activity is given at values of at least 85)"}, {"measurement": "herbicidal activity against AMARE", "setting": "AMARE", "value": "very good herbicidal activity (a very good herbicidal activity is given at values of at least 85)"}]}]}
